Data from PubChem BioAssay (NCI).
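GI50 is the concentration that inhibits growth by half. TGI marks complete inhibition of growth.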

How the values were obtained:
Test in all cases: NCI-60 cell line screen, 384-well format
786-0 renal = test system: 786-0 renal
A498 renal = test system: A498 renal
A549 NSCLC = test system: A549 NSCLC
ACHN renal = test system: ACHN renal
BT-549 breast = test system: BT-549 breast
CAKI-1 renal = test system: CAKI-1 renal
CCRF-CEM leukemia = test system: CCRF-CEM leukemia
COLO 205 colon = test system: COLO 205 colon
DU-145 prostate = test system: DU-145 prostate
EKVX NSCLC = test system: EKVX NSCLC
HCC-2998 colon = test system: HCC-2998 colon
HCT-116 colon = test system: HCT-116 colon
HCT-15 colon = test system: HCT-15 colon
HL-60(TB) leukemia = test system: HL-60(TB) leukemia
HOP-62 NSCLC = test system: HOP-62 NSCLC
HS 578T breast = test system: HS 578T breast
HT29 colon = test system: HT29 colon
IGROV1 ovarian = test system: IGROV1 ovarian
K-562 leukemia = test system: K-562 leukemia
KM12 colon = test system: KM12 colon
LOX IMVI melanoma = test system: LOX IMVI melanoma
M14 melanoma = test system: M14 melanoma
MALME-3M melanoma = test system: MALME-3M melanoma
MCF7 breast = test system: MCF7 breast
MDA-MB-435 melanoma = test system: MDA-MB-435 melanoma
MDA-MB-468 breast = test system: MDA-MB-468 breast
MOLT-4 leukemia = test system: MOLT-4 leukemia
NCI-H226 lung = test system: NCI-H226 lung
NCI-H23 lung = test system: NCI-H23 lung
NCI-H322M lung = test system: NCI-H322M lung
NCI-H460 NSCLC = test system: NCI-H460 NSCLC
NCI-H522 lung = test system: NCI-H522 lung
NCI/ADR-RES ovarian = test system: NCI/ADR-RES ovarian
OVCAR-3 ovarian = test system: OVCAR-3 ovarian
OVCAR-4 ovarian = test system: OVCAR-4 ovarian
OVCAR-8 ovarian = test system: OVCAR-8 ovarian
PC-3 prostate = test system: PC-3 prostate
RPMI-8226 leukemia = test system: RPMI-8226 leukemia
RXF 393 renal = test system: RXF 393 renal
SF-268 CNS = test system: SF-268 CNS
SF-295 CNS = test system: SF-295 CNS
SF-539 CNS = test system: SF-539 CNS
SK-MEL-2 melanoma = test system: SK-MEL-2 melanoma
SK-MEL-28 melanoma = test system: SK-MEL-28 melanoma
SK-MEL-5 melanoma = test system: SK-MEL-5 melanoma
SK-OV-3 ovarian = test system: SK-OV-3 ovarian
SN12C renal = test system: SN12C renal
SNB-19 CNS = test system: SNB-19 CNS
SNB-75 CNS = test system: SNB-75 CNS
SW-620 colon = test system: SW-620 colon
TK-10 renal = test system: TK-10 renal
U251 glioblastoma = test system: U251 glioblastoma
UACC-257 melanoma = test system: UACC-257 melanoma
UACC-62 melanoma = test system: UACC-62 melanoma

CCOC(=O)c1cc(/C=C/c2ccc(Cl)cc2Cl)on1
GI50 ([…]-0 renal): 1.84 µM
TGI (786-0 renal): 3.35 µM
GI50 (A498 renal): 1.85 µM
TGI (A498 renal): 3.33 µM
GI50 (A549 NSCLC): 2.44 µM
TGI (A549 NSCLC): 6.1 µM
GI50 (ACHN renal): 1.86 µM
TGI (ACHN renal): 3.39 µM
GI50 (BT-549 breast): 2.11 µM
TGI (BT-549 breast): 4.35 µM
GI50 (CAKI-1 renal): 1.77 µM
TGI (CAKI-1 renal): 3.91 µM
GI50 (CCRF-CEM leukemia): 1.13 µM
TGI (CCRF-CEM leukemia): 2.37 µM
GI50 (COLO 205 colon): 2.72 µM
TGI (COLO 205 colon): 6.54 µM
GI50 (DU-145 prostate): 4.46 µM
TGI (DU-145 prostate): > 100 µM
GI50 (EKVX NSCLC): 2.7 µM
TGI (EKVX NSCLC): 8.84 µM
GI50 (HCC-2998 colon): 1.96 µM
TGI (HCC-2998 colon): 3.97 µM
GI50 (HCT-116 colon): 0.74 µM
TGI (HCT-116 colon): 2.04 µM
GI50 (HCT-15 colon): 1.36 µM
TGI (HCT-15 colon): 4.34 µM
GI50 (HL-60(TB) leukemia): 0.818 µM
TGI (HL-60(TB) leukemia): 2.04 µM
GI50 (HOP-62 NSCLC): 0.469 µM
TGI (HOP-62 NSCLC): 2.83 µM
GI50 (HS 578T breast): 1.97 µM
TGI (HS 578T breast): 3.54 µM
GI50 (HT29 colon): 1.92 µM
TGI (HT29 colon): 4.22 µM
GI50 (IGROV1 ovarian): 2.09 µM
TGI (IGROV1 ovarian): 4.34 µM
GI50 (K-562 leukemia): 10.7 µM
TGI (K-562 leukemia): 30.8 µM
GI50 (KM12 colon): 0.932 µM
TGI (KM12 colon): 3.93 µM
GI50 (LOX IMVI melanoma): 1.91 µM
TGI (LOX IMVI melanoma): 3.63 µM
GI50 (M14 melanoma): 3.27 µM
TGI (M14 melanoma): 8.82 µM
GI50 (MALME-3M melanoma): 2.39 µM
TGI (MALME-3M melanoma): 4.05 µM
GI50 (MCF7 breast): 0.662 µM
TGI (MCF7 breast): 2.81 µM
GI50 (MDA-MB-435 melanoma): 3.41 µM
TGI (MDA-MB-435 melanoma): 11.3 µM
GI50 (MDA-MB-468 breast): 2.28 µM
TGI (MDA-MB-468 breast): 3.94 µM
GI50 (MOLT-4 leukemia): 1.03 µM
TGI (MOLT-4 leukemia): 2.21 µM
GI50 (NCI-H226 lung): 1.96 µM
TGI (NCI-H226 lung): 3.83 µM
GI50 (NCI-H23 lung): 2.34 µM
TGI (NCI-H23 lung): 5.29 µM
GI50 (NCI-H322M lung): 4.04 µM
TGI (NCI-H322M lung): 14.1 µM
GI50 (NCI-H460 NSCLC): 1.22 µM
TGI (NCI-H460 NSCLC): 2.59 µM
GI50 (NCI-H522 lung): 2.02 µM
TGI (NCI-H522 lung): 3.51 µM
GI50 (NCI/ADR-RES ovarian): 1.84 µM
TGI (NCI/ADR-RES ovarian): 3.3 µM
GI50 (OVCAR-3 ovarian): 1.85 µM
TGI (OVCAR-3 ovarian): 3.55 µM
GI50 (OVCAR-4 ovarian): 2.63 µM
TGI (OVCAR-4 ovarian): 7.19 µM
GI50 (OVCAR-8 ovarian): 0.649 µM
TGI (OVCAR-8 ovarian): 11 µM
GI50 (PC-3 prostate): 1.97 µM
TGI (PC-3 prostate): 4.05 µM
GI50 (RPMI-8226 leukemia): 0.471 µM
TGI (RPMI-8226 leukemia): 1.25 µM
GI50 (RXF 393 renal): 1.99 µM
TGI (RXF 393 renal): 3.46 µM
GI50 (SF-268 CNS): 4.09 µM
TGI (SF-268 CNS): 13.5 µM
GI50 (SF-295 CNS): 2.47 µM
TGI (SF-295 CNS): 5.3 µM
GI50 (SF-539 CNS): 0.945 µM
TGI (SF-539 CNS): 2.19 µM
GI50 (SK-MEL-2 melanoma): 2.12 µM
TGI (SK-MEL-2 melanoma): 4.35 µM
GI50 (SK-MEL-28 melanoma): 2.42 µM
TGI (SK-MEL-28 melanoma): 4.39 µM
GI50 (SK-MEL-5 melanoma): 1.77 µM
TGI (SK-MEL-5 melanoma): 3.53 µM
GI50 (SK-OV-3 ovarian): 2.01 µM
TGI (SK-OV-3 ovarian): 4.15 µM
GI50 (SN12C renal): 1.81 µM
TGI (SN12C renal): 3.32 µM
GI50 (SNB-19 CNS): 3.1 µM
TGI (SNB-19 CNS): 8.17 µM
GI50 (SNB-75 CNS): 3.2 µM
TGI (SNB-75 CNS): 6.12 µM
GI50 (SW-620 colon): 1.36 µM
TGI (SW-620 colon): 3.02 µM
GI50 (TK-10 renal): 2.37 µM
TGI (TK-10 renal): 4.71 µM
GI50 (U251 glioblastoma): 1.27 µM
TGI (U251 glioblastoma): 3.3 µM
GI50 (UACC-257 melanoma): 2.95 µM
TGI (UACC-257 melanoma): 5.65 µM
GI50 (UACC-62 melanoma): 2.08 µM
TGI (UACC-62 melanoma): 4.26 µM
